Columns and labels:
[1] = test system: human patients having various causes of pulmonary hypertension; test: Clinical study: continuous sildenafil infusion in patients with pulmonary hypertension, PVR and SVR determined; type: in vivo; details: infusion to plasma level 100, 300 and 500 ng/ml, FIG. 1
Experimental: A number of patients having various causes of pulmonary hypertension were selected. The patients were then assessed in order to establish baseline data, including haemodynamic parameters (by right heart catheterization), blood gas profile (via an arterial line and pulse oximetry). The patients were then tested with 40 ppm of nitric oxide (NO) by inhilation for 5 minutes to assess the reversibility of pulmonary hypertension. Haemodynamic parameters were reassessed within 5 minutes of NO and then further assessed 5-20 minutes later. When the pulmonary arterial pressure levels had returned to baseline (+−5%) inhalation haemodynamic parameters were assessed again and patients were continuously infused with sildenafil at rates to control the plasma level at 100, 300 and 500 nanogrammes per milliliter. A few patients received placebo instead of sildenafil in double-blind fashion. Haemodynamic parameters were recorded throughout infusion. From the data collected during the trial, the PVR and SVR were determined.

[2] = test system: corpus cavernosum of the penis; details: dog model; cited from earlier work
[3] = test system: hypoxic pulmonary vasoconstriction in anaesthetized Beagle dogs; test: Hypoxic pulmonary vasoconstriction in anaesthetised dogs, intravenous administration; type: in vivo, dog
Experimental: The anaesthetized dog is the model of choice in which to study the effect of drugs, owing to the similarity between canine and human haemodynamics, and additionally, to ensure cinsistency between pharmacological and toxicological species.
Beagle dogs of either sex were anaesthetized with intravenous sodium pentobarbitone (Sagatal [trademark], 30 to 45 mg/kg) and anesthesia maintained with an infusion of Sagatal (6 mg/kg/h) into the right femoral vein. The dogs were initially intubated via the mouth, and then via a tracheotomy, and artificially respired using an Ugo Basille dog respirator. […] Respiratory gases (inspired O2 and end tidal CO2) were monitored by a Normocap 200 (trademark) respiratory gas monitor (Datex Instrumentarium Corp.). The depth of anesthesia was assessed by carefully monitoring arterial blood pressure and heart rate. […] Pulmonary artery pressure (PAP) and pulmonary artery wedge pressure were recorded from this catheter. This catheter was also connected to a cardiac index computer (Gould Instruments) and cardiac output determined by thermodilution following rapid injection of 5 ml saline at room temperature. […] Lead II ECG was recorded from 2 stainless steel needles inserted subcutaneously in the right arm and left leg. […] All data from the primary signals (PAP, Arterial blood pressure (ABP) and ECG) was recorded on a Po-ne-mah (trademark) data acquisition system. […]

[4] = test system: hypoxic pulmonary vasoconstriction in anaesthetized dogs; test: Hypoxic pulmonary vasoconstriction in anaesthetised dogs, inhaled administration; type: in vivo, dog; details: inhaled (nebulised), lowest of doses 30, 80, 230 and 770, hypoxic challenge, FIG. 3
Experimental: This separate study was performed in analogous fashion to intravenous administration, except that doses were administered into the inspiratory limb of the respiratory circuit using a Penta-sonic Nebuliser (deVilbiss). Each inhaled dose consisted of a timed nebulisation of the solution at a respiration rate of 15 breaths/min finishing 5 min before an hypoxic challenge. Sildenafil and vehicle were administered to a maximum of four dogs per group (i.e. total of eight dogs). At the end of the first vehicle experiment an additional hypoxic challenge was done following administration of an inhaled dose of sildenafil. Doses were made up by dissolving sildenafil in vehicle [sodium acetate buffer (0.038 M)] to the required concentration. Four doses of 30, 80, 230 and 770 microgrammes/weight of dog in kilogrammes were administered.

Q: Which results are given for CCCc1nn(C)c2c(=O)[nH]c(-c3cc(S(=O)(=O)N4CCN(C)CC4)ccc3OCC)nc12 [sildenafil, 5-[2-ethoxy-5-(4-methylpiperazin-1-ylsulfonyl)phenyl]-1,6-dihydro-1-methyl-3-propylpyrazolo[4,3-d]pyrimidin-7-one]?
A: effect on PVR [1]: significant reduction in PVR; effect on SVR compared with effect on PVR [1]: substantially lower than the effect on PVR; calculated intravenous dose producing half-maximal potentiation (ED50) of nerve-induced pressure rises [2]: 12 microgrammes/kg; effect on SVR compared with effect on PVR ([3]; FIG. 2): significantly lower than on PVP; dose producing maximal effect on PVR (reversing hypoxic pulmonary vasoconstriction) ([3]; lowest of doses 1.5, 4.5, 15 and 45, hypoxic challenge): 1.5 microgrammes/kg; dose producing maximal effect on PVR [4]: 30 microgrammes/kg

From patent US20120095006A1, “TREATMENT OF PULMONARY HYPERTENSION” (Pfizer Inc., priority 1999, published 2012)
